{"source": "patent US11840533B2", "about": "“Pyridinone-based epigenetic modifiers and uses thereof” (THE BOARD OF TRUSTEES OF THE UNIVERSITY OF ILLINOIS, priority 2017, dated 2023)", "key": {"BRD1": {"target": "BRD1 (Homo sapiens (Human), UniProt O95696)", "experiment": "BROMOscan", "format": "binding", "description": "(§1) BROMOscan is a bromodomain inhibitor binding platform provided by DiscoverX that measures the interactions between compounds and a panel of bromodomain proteins."}, "TAF1L(2)": {"target": "TAF1L(2) (Homo sapiens (Human), UniProt Q8IZX4)", "sequence (Q8IZX4 1517-1626)": "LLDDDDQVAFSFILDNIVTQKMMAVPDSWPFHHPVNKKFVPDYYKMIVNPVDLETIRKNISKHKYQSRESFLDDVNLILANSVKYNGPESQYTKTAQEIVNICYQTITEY", "experiment": "BROMOscan", "format": "binding", "description": "as §1"}, "BRDT(2)": {"target": "BRDT(2) (Homo sapiens (Human), UniProt Q58F21)", "experiment": "BROMOscan", "format": "binding", "description": "as §1"}, "BRPF1": {"target": "BRPF1 (Homo sapiens (Human), UniProt P55201)", "experiment": "BROMOscan", "format": "binding", "description": "as §1"}, "BRD9": {"target": "BRD9 (Homo sapiens (Human), UniProt Q9H8M2)", "experiment": "BROMOscan", "format": "binding", "description": "as §1"}, "BRD8(1)": {"target": "BRD8(1) (Homo sapiens (Human), UniProt Q9H0E9)", "sequence (Q9H0E9 706-811)": "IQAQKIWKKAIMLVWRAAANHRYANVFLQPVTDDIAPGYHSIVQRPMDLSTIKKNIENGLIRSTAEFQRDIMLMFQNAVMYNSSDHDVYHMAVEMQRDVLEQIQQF", "experiment": "BROMOscan", "format": "binding", "description": "as §1"}, "BRD3(1, 2)": {"target": "BRD3(1, 2) (Homo sapiens (Human), UniProt Q15059)", "sequence (Q15059 24-416)": "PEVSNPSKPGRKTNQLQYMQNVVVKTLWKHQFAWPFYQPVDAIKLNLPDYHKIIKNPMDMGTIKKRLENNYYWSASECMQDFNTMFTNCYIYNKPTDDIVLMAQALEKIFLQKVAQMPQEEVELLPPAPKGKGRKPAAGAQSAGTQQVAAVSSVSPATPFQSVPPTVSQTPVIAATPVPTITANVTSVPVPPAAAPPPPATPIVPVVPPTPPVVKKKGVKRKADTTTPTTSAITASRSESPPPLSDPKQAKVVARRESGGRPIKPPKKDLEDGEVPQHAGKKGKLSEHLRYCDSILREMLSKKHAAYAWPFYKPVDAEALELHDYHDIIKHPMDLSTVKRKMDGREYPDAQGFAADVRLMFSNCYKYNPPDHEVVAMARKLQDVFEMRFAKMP", "experiment": "BROMOscan", "format": "binding", "description": "as §1"}, "TAF1(2)": {"target": "TAF1(2) (Homo sapiens (Human), UniProt P21675)", "sequence (P21675 1519-1628)": "as the sequence (Q8IZX4 1517-1626) above, with M46V, V51M, I102V, I107L counted along it", "experiment": "BROMOscan", "format": "binding", "description": "as §1"}, "BRD3(2)": {"target": "BRD3(2) (Homo sapiens (Human), UniProt Q15059)", "sequence (Q15059 306-415)": "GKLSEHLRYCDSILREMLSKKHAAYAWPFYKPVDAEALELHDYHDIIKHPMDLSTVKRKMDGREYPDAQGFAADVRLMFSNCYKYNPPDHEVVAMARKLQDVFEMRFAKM", "experiment": "BROMOscan", "format": "binding", "description": "as §1"}, "CECR2": {"target": "CECR2 (Homo sapiens (Human), UniProt Q9BXF3)", "sequence (Q9BXF3 whole entry)": "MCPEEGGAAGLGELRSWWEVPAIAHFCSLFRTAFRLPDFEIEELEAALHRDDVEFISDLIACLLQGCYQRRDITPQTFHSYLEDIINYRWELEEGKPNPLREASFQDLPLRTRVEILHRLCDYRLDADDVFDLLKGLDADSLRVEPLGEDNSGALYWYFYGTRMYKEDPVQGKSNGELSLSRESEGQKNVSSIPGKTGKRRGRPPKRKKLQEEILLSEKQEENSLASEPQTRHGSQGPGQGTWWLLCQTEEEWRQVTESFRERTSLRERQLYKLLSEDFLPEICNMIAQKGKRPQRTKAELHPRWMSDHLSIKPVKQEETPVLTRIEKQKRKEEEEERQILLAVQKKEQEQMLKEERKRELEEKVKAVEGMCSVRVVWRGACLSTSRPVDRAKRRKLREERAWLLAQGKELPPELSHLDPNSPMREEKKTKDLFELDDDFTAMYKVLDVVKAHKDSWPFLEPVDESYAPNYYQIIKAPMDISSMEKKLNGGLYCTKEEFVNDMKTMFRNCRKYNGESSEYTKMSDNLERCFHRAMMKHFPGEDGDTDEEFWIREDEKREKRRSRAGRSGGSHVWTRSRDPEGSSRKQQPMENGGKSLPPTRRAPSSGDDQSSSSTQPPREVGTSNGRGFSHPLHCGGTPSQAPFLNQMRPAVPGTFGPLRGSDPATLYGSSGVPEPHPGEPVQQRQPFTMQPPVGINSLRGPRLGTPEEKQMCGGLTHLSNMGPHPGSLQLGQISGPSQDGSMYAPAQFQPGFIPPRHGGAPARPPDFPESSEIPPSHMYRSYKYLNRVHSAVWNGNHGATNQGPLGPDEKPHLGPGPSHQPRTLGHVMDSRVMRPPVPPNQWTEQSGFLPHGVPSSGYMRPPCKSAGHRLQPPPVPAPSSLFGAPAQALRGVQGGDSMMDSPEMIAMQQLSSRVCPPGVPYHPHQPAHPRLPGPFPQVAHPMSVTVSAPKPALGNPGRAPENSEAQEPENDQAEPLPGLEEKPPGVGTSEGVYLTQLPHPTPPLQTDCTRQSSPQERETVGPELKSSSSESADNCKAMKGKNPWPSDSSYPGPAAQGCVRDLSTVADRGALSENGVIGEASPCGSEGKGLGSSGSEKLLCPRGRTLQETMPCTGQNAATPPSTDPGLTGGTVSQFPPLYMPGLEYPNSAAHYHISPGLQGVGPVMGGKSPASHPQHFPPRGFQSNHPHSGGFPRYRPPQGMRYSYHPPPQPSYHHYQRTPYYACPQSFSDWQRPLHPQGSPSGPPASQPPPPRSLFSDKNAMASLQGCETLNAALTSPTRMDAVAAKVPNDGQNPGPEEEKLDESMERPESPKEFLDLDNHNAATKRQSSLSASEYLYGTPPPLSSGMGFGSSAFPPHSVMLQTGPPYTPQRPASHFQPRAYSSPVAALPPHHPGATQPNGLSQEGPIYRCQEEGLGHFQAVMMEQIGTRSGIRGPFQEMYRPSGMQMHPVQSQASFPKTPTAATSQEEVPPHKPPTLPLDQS", "experiment": "BROMOscan", "format": "binding", "description": "as §1"}, "BAZ2A": {"target": "BAZ2A (Homo sapiens (Human), UniProt Q9UIF9)", "experiment": "BROMOscan", "format": "binding", "description": "as §1"}, "BRD2(2)": {"target": "BRD2(2) (Homo sapiens (Human), UniProt P25440)", "sequence (P25440 344-453)": "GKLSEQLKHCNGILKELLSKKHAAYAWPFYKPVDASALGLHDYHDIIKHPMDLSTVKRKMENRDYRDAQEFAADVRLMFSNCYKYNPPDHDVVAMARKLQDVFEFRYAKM", "experiment": "BROMOscan", "format": "binding", "description": "as §1"}, "BRDT(1)": {"target": "BRDT(1) (Homo sapiens (Human), UniProt Q58F21)", "experiment": "BROMOscan", "format": "binding", "description": "as §1"}, "PBRM1(5)": {"target": "PBRM1(5) (Homo sapiens (Human), UniProt Q86U86)", "experiment": "BROMOscan", "format": "binding", "description": "as §1"}, "BRD2(1, 2)": {"target": "BRD2(1, 2) (Homo sapiens (Human), UniProt P25440)", "experiment": "BROMOscan", "format": "binding", "description": "as §1"}, "BRD3(1)": {"target": "BRD3(1) (Homo sapiens (Human), UniProt Q15059)", "sequence (Q15059 34-140)": "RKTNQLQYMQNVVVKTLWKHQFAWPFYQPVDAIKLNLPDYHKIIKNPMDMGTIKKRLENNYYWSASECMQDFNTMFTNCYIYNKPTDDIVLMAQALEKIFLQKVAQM", "experiment": "BROMOscan", "format": "binding", "description": "as §1"}, "BRDT(1, 2)": {"target": "BRDT(1, 2) (Homo sapiens (Human), UniProt Q58F21)", "experiment": "BROMOscan", "format": "binding", "description": "as §1"}, "EP300": {"target": "EP300 (Homo sapiens (Human), UniProt Q09472)", "experiment": "BROMOscan", "format": "binding", "description": "as §1"}, "TRIM24(Bromo.)": {"target": "TRIM24(Bromo.) (Homo sapiens (Human), UniProt O15164)", "experiment": "BROMOscan", "format": "binding", "description": "as §1"}, "BRD2(1)": {"target": "BRD2(1) (Homo sapiens (Human), UniProt P25440)", "sequence (P25440 74-180)": "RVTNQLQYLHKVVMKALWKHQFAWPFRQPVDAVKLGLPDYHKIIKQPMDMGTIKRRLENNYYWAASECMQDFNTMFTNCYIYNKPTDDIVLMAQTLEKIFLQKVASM", "experiment": "BROMOscan", "format": "binding", "description": "as §1"}, "CREBBP": {"target": "CREBBP (Homo sapiens (Human), UniProt Q92793)", "sequence (Q92793 whole entry)": "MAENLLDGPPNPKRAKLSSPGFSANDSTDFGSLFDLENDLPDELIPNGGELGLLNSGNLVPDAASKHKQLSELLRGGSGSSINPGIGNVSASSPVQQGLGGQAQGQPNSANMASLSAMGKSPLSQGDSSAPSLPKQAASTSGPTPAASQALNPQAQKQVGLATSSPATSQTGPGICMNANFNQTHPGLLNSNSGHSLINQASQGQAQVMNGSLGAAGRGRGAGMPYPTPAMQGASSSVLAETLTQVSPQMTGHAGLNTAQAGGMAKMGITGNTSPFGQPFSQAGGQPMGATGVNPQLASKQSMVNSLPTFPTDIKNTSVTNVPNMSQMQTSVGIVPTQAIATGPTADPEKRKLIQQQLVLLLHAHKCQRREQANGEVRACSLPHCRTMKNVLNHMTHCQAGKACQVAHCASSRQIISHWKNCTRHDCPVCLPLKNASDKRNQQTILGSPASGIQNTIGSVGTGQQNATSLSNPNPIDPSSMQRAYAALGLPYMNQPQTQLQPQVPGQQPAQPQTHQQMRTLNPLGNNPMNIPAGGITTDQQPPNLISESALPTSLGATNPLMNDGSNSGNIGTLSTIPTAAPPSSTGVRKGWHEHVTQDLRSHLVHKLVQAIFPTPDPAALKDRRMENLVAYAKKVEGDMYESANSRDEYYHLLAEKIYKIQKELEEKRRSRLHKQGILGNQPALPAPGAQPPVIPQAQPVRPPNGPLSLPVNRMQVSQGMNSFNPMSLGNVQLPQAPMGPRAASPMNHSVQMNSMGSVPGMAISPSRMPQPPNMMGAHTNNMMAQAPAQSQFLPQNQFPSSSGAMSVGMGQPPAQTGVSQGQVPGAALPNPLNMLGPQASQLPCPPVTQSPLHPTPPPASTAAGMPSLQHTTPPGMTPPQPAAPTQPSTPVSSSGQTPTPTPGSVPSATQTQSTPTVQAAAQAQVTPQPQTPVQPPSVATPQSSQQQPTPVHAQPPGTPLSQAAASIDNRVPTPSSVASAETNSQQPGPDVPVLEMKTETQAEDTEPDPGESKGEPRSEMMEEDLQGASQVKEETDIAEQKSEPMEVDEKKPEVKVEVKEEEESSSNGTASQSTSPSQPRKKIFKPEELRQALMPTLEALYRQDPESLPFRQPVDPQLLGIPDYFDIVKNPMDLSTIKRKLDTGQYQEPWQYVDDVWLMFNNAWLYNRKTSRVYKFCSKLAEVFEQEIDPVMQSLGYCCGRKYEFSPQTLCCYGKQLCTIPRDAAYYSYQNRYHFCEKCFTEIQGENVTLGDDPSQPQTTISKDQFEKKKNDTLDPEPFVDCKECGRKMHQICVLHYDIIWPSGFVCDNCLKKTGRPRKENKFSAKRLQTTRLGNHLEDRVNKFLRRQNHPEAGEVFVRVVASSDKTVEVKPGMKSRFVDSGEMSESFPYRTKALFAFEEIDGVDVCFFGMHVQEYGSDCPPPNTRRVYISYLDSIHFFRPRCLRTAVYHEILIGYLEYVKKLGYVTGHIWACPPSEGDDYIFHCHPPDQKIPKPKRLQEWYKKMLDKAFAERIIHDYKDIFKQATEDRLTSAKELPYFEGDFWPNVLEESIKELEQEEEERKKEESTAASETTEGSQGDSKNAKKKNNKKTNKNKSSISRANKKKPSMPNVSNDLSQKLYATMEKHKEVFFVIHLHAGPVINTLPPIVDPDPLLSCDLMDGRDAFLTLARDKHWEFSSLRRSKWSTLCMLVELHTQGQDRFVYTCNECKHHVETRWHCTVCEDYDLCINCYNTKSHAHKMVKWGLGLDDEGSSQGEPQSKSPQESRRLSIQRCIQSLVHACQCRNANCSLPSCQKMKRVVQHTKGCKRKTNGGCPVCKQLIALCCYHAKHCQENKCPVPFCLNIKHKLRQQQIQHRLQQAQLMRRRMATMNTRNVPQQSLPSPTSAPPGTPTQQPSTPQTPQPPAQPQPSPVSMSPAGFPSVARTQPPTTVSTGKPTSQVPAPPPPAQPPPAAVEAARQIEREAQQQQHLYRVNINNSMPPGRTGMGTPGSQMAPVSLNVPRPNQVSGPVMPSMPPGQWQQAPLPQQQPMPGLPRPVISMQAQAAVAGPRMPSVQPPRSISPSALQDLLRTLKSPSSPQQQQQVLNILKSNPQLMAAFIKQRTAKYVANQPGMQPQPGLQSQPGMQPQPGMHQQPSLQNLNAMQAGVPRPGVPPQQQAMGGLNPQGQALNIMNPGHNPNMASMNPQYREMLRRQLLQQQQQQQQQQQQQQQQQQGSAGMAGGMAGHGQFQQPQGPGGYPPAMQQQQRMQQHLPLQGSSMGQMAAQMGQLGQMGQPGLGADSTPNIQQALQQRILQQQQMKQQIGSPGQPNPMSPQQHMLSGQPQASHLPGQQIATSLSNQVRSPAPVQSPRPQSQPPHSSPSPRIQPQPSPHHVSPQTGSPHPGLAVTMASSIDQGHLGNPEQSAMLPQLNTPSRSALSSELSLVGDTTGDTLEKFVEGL", "experiment": "BROMOscan", "format": "binding", "description": "as §1"}, "[1]": {"system": "fulvestrant-resistant MCF7:5C-FR cells", "experiment": "Fulvestrant-resistant breast cancer cell viability (cell proliferation) assay", "format": "cell-based", "method_in_brief": "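Cells were treated the day after seeding with compounds at 3 nM to 10 uM for 120 h, with 0.1% DMSO vehicle and 1 uM JQ1 as positive control. Hoechst 33342-stained (5 μg/ml, 90 min, 37 C) nuclei were imaged and counted, and cell numbers normalized to vehicle.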"}, "BET family proteins": {"system": "BET family proteins", "experiment": "BROMOscan panel of bromodomain proteins", "format": "binding", "conditions": "FIG. 6", "description": "as §1"}, "[2]": {"system": "3D spheroids of fulvestrant-resistant MCF-7:CFR", "experiment": "Growth of 3D spheroids of fulvestrant-resistant MCF-7:CFR", "format": "cell-based", "conditions": "FIG. 11; vs JQ1 and AZD-5153"}}}
{"molecule": "CCS(=O)(=O)Nc1cc(-c2cn(C)c3c(=O)[nH]ccc23)cc2c1ccn2C(C)(c1ccccn1)c1ccccn1", "note": "[Compound 70]", "values": [{"measurement": "Kd", "setting": "BRD1", "result": 7.7, "unit": "µM"}, {"measurement": "Kd", "setting": "TAF1L(2)", "result": 0.044, "unit": "µM"}, {"measurement": "Kd", "setting": "BRDT(2)", "result": 0.0014, "unit": "µM"}, {"measurement": "Kd", "setting": "BRPF1", "result": 0.36, "unit": "µM"}, {"measurement": "Kd", "setting": "BRD9", "result": 3.5, "unit": "µM"}, {"measurement": "Kd", "setting": "BRD8(1)", "result": 4.9, "unit": "µM"}, {"measurement": "Kd", "setting": "BRD3(1, 2)", "result": 0.00027, "unit": "µM"}, {"measurement": "Kd", "setting": "TAF1(2)", "result": 0.0091, "unit": "µM"}, {"measurement": "Kd", "setting": "BRD3(2)", "result": 0.00061, "unit": "µM"}, {"measurement": "Kd", "setting": "CECR2", "result": 6, "unit": "µM"}, {"measurement": "Kd", "setting": "BAZ2A", "result": 3.5, "unit": "µM"}, {"measurement": "Kd", "setting": "BRD2(2)", "result": 0.00077, "unit": "µM"}, {"measurement": "Kd", "setting": "BRDT(1)", "result": 0.00014, "unit": "µM"}, {"measurement": "Kd", "setting": "PBRM1(5)", "result": 6.1, "unit": "µM"}, {"measurement": "Kd", "setting": "BRD2(1, 2)", "result": 0.00057, "unit": "µM"}, {"measurement": "Kd", "setting": "BRD3(1)", "result": 0.00034, "unit": "µM"}, {"measurement": "Kd", "setting": "BRDT(1, 2)", "result": 0.00023, "unit": "µM"}, {"measurement": "Kd", "setting": "EP300", "result": 0.037, "unit": "µM"}, {"measurement": "Kd", "setting": "TRIM24(Bromo.)", "result": 4.4, "unit": "µM"}, {"measurement": "Kd", "setting": "BRD2(1)", "result": 0.00027, "unit": "µM"}, {"measurement": "Kd", "setting": "CREBBP", "result": 0.11, "unit": "µM"}, {"measurement": "IC50", "setting": "[1]; 120 h, growth inhibition in fulvestrant-resistant MCF-7:CFR cells, 120 hrs", "result": 0.0009, "unit": "µM"}, {"measurement": "growth inhibition in comparison with clinical benchmark BET inhibitors", "setting": "[1]; FIG. 10, vs BMS-98615, ABBV-075, AVR-771, AZD-5153, I-BET-762 and JQ1", "result": "superior potency"}, {"measurement": "binding affinity for BET family", "setting": "BET family proteins", "result": "subnanomolar potency"}, {"measurement": "efficacy in inhibiting the growth of 3D spheroids", "setting": "[2]", "result": "more efficacious than JQ1 and AZD-5153"}]}
